Experimental findings from patent EP4745138A1, “THIO-GLUTARIMIDO ISOINDOLINONE DERIVATIVE, BIFUNCTIONAL PROTEIN DEGRADER CONTAINING SAME, AND USES THEREOF” (Gluetacs Therapeutics (Shanghai) Co., Ltd., priority 2023, dated 2025) are described below.

In assay [1] the target is T1, human Cereblon WT GST-tagged protein (Homo sapiens, UniProt Q96SW2).
T1 construct: purchased CISBIO 64BDCRBNPEH
The assay can be described thus: CRBN-binding affinity, HTRF (CEREBLON BINDING kit). Particulars: for inhibition at 0.5 µM: read-out: Inhibition Rate at 0.5 µM (%); for inhibition at 2 µM: read-out: Inhibition Rate at 2 µM (%). In a few lines: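 Competitive HTRF binding: compounds diluted in diluent #9 incubated with GST-tagged wild-type human Cereblon, thalidomide-Red tracer and anti-GST Eu antibody. Final compound concentrations 2 µM and 0.5 µM.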
(In general: TR-FRET usually uses a lanthanide donor and a delayed reading to cut background.)

A further assay deals with EGFR. Kind of assay: Western blot, target protein degradation in H1975 Cell. The assay is classed as cell-based, Human. Particulars: substrate protein remaining %, treated at 500 nM and 50 nM, 24 hours. The method, then:
(§1) Conventional Western blot assay was performed to evaluate the effects of the compounds of the present disclosure on the expression of target proteins in cells.
(§2) (1) Cell Seeding and Protein Harvesting: The selected cells were processed according to the cell seeding procedure and protein harvesting procedure in Table II-2. Table II-2 Cell Seeding and Protein Harvesting Procedures
(§3) (2) To the collected supernatant, 5X SDS sample loading buffer was added, followed by denaturation at 95°C for 5 minutes. The denatured samples were then separated by SDS-PAGE electrophoresis on a polyacrylamide gel. Proteins were transferred to a nitrocellulose membrane (0.45 µm NC membrane), blocked with blocking buffer at room temperature for 1 hour, and subjected to antibody incubation and development procedures according to the antibody manufacturer's instructions (Cell Signaling Technology).
(§4) Half-Maximal Degradation Concentration value (the drug concentration required for degrading proteins by 50%, abbreviated as DC50) reads method: comparing the grayscale values of Western blot bands from drug-treated samples with those from blank DMSO-treated controls, and identifying the drug concentration range at which the grayscale value is half that of the DMSO-treated control bands.
(§5) DC50 values can be calculated using ImageJ software to measure grayscale values of Western blot bands from drug-treated samples. The concentration-response curve is fitted to estimate the drug concentration corresponding to half the grayscale value.
(§6) Target protein remaining (%) refers to the percentage of target protein remaining in cells after treatment with protein degrader compounds.
(§7) Calculation method for target protein remaining (%): Use ImageJ software to measure grayscale values of Western blot bands from drug (protein degrader)-treated samples. The grayscale value of drug-treated bands is divided by that of internal control protein bands, and the resulting quotient is normalized to obtain the relative percentage of remaining target protein after protein degrader treatment. Target protein degradation rate(%) = 1−target protein remaining(%). [formula]
In general terms: Immunoblotting shows a protein as a band on a membrane.

For a further assay, the system named is H1975. The assay can be described thus: Tumor cell proliferation inhibition (CellTiter-Meiluncell Luminescent Cell Viability Assay). The assay is classed as cell-based. The conditions noted are these: Homo sapiens, 96 hours, Table I-3, EGFR inhibitors. In a few lines:
(§8)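 Cells were grown at 37°C under 5% CO2, seeded into 96-well plates, and dosed with compound on the next day. After a set treatment period, viability was read by luminescence with the CellTiter-Meiluncell reagent and IC50 values were derived. Final compound concentrations included 500 nM and 10 nM.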

In another assay the target is T2, CDK4 (Homo sapiens, UniProt P11802).
T2 construct: endogenous in cells; host or cells: MDA-MB-231
Kind of assay: Western blot, target protein degradation in MDA-MB-231 Cell. The class given is cell-based. The conditions noted are these: substrate protein remaining %, treated at 500 nM and 50 nM, 24 hours. The method, then: as §1, §2, §3, §4, §5, §6, §7

A further assay has as its target T3, CDK6 (Homo sapiens, UniProt Q00534).
T3 construct: endogenous in cells; host or cells: MDA-MB-231
Described as above. The class given is cell-based. Particulars: substrate protein remaining %, treated at 500 nM and 50 nM, 24 hours. The method, then:
as §1, §2, §3, §4, §5, §6, §7

The next assay addresses T4, BCR-ABL (Homo sapiens, UniProt P00519+P11274+Q96SW2, E27K).
T4 construct: endogenous in cells; host or cells: K562
The assay can be described thus: Western blot, target protein degradation in K562 Cell. The assay is classed as cell-based. Particulars: substrate protein remaining %, treated at 500 nM and 50 nM, 24 hours. The method, then:
as §1, §2, §3, §4, §5, §6, §7

The next assay has as its system SW620. Kind of assay: Tumor cell proliferation inhibition (CellTiter-Meiluncell Luminescent Cell Viability Assay). Particulars: Homo sapiens, 96 hours, Table I-10, BCR-ABL inhibitors. The assay is classed as cell-based. In a few lines: (§9)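 Following overnight seeding, tumor cells received serial compound dilutions to final levels that included 10 nM and 500 nM. Viability was assessed by luminescence at the end of the specified exposure time. Cultures were kept at 37°C with 5% CO2.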

For another assay, the system named is RPMI-8226. Described as above. The assay is classed as cell-based. The conditions noted are these: Homo sapiens, 96 hours, Table I-10, BCR-ABL inhibitors; for inhibition at 0.01 µM: 10 nM, read-out: Inhibition Rate at 10 nM (%); for inhibition at 0.5 µM: 500 nM, read-out: Inhibition Rate at 500 nM (%). An outline of the steps:
as §9

A further assay deals with MM.1S. The assay is described as above. The assay is classed as cell-based. The conditions noted are these: Homo sapiens, MM1.S, MM.1S, 96 hours, Table I-10, BCR-ABL inhibitors; for inhibition at 0.01 µM: 10 nM, read-out: Inhibition Rate at 10 nM (%); for inhibition at 0.5 µM: 500 nM, read-out: Inhibition Rate at 500 nM (%). In a few lines:
as §9

A further assay deals with MV-4-11. The assay is described as above. The assay is classed as cell-based. Particulars: Homo sapiens, 96 hours, Table I-10, BCR-ABL inhibitors; for inhibition at 0.01 µM: MV4-11, 10 nM, read-out: Inhibition Rate at 10 nM (%); for inhibition at 0.5 µM: MV4-11, 500 nM, read-out: Inhibition Rate at 500 nM (%). In a few lines:
as §9

A further assay deals with CFPAC-1. The assay is described as above. The class given is cell-based. The conditions noted are these: Homo sapiens, 96 hours, Table I-2, ALK inhibitors. In a few lines:
as §8

For a further assay, the system named is A375. Described as above. The assay is classed as cell-based. The conditions noted are these: Homo sapiens, 96 hours, Table I-2, ALK inhibitors. In a few lines:
as §8

Each structure is given as a SMILES string.

T4 sequence (P11274+P00519 fused, stated change not applied): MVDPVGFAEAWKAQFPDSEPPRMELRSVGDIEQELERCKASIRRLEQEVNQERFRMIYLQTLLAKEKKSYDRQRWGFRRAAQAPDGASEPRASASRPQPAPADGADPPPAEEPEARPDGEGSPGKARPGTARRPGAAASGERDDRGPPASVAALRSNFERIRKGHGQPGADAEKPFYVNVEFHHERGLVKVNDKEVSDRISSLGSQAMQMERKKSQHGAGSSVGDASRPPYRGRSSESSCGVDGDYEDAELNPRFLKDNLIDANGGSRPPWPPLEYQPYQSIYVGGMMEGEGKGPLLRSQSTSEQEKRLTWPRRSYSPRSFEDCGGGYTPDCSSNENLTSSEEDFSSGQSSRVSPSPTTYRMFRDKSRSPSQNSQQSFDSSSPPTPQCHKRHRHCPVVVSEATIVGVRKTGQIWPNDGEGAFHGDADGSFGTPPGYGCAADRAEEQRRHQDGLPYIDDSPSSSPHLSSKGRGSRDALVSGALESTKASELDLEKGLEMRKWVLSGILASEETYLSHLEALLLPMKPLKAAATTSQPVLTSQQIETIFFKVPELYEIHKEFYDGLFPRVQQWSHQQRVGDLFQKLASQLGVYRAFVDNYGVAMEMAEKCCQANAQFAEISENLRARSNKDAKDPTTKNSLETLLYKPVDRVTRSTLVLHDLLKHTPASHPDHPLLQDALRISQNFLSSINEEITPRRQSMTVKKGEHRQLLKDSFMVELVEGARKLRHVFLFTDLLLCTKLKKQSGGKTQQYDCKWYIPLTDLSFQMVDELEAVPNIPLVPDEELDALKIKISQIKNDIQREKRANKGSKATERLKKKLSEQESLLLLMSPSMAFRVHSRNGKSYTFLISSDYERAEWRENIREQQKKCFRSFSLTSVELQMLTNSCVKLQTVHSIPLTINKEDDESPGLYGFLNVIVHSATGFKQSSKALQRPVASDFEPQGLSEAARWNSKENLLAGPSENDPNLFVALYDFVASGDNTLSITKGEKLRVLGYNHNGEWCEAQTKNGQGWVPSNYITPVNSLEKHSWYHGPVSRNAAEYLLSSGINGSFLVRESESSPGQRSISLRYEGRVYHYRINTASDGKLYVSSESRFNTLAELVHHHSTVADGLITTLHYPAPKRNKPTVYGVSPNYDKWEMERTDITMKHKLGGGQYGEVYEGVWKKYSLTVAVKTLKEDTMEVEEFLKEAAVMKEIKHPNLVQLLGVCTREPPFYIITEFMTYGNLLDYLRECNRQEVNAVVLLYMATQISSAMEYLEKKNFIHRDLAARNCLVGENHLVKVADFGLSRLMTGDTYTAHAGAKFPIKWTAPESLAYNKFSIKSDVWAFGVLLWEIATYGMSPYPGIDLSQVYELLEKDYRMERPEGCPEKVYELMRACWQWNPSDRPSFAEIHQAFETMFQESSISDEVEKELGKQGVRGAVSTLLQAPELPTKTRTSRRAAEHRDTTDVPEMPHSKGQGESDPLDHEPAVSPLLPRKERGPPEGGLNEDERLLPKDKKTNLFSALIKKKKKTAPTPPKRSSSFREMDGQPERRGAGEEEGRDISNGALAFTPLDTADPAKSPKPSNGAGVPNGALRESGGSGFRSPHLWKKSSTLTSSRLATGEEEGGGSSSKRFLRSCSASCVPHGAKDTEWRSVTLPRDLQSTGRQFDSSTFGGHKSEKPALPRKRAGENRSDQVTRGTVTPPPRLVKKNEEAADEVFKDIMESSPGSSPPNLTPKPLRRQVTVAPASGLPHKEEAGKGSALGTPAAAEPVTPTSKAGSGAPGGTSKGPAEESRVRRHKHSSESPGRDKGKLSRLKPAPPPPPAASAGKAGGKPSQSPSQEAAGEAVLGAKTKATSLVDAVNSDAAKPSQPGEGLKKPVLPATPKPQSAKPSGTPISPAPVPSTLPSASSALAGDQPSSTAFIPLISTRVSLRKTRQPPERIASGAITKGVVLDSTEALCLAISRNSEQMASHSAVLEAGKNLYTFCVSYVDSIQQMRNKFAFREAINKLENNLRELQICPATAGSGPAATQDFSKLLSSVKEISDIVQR
T4 sequence (Q96SW2 whole entry, stated change not applied): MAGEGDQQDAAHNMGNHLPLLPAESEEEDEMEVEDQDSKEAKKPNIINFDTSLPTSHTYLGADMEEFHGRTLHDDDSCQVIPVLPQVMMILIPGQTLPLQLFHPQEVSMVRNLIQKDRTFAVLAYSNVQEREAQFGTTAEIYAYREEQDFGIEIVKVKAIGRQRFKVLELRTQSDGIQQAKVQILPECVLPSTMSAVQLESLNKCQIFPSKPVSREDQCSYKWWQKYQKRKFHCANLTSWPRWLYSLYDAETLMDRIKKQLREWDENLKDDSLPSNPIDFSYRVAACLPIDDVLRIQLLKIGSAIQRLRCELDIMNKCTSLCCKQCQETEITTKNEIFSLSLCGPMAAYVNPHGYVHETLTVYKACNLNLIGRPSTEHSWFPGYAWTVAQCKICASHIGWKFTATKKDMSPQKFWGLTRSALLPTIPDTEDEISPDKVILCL
T4 sequence (Q16531 whole entry partner): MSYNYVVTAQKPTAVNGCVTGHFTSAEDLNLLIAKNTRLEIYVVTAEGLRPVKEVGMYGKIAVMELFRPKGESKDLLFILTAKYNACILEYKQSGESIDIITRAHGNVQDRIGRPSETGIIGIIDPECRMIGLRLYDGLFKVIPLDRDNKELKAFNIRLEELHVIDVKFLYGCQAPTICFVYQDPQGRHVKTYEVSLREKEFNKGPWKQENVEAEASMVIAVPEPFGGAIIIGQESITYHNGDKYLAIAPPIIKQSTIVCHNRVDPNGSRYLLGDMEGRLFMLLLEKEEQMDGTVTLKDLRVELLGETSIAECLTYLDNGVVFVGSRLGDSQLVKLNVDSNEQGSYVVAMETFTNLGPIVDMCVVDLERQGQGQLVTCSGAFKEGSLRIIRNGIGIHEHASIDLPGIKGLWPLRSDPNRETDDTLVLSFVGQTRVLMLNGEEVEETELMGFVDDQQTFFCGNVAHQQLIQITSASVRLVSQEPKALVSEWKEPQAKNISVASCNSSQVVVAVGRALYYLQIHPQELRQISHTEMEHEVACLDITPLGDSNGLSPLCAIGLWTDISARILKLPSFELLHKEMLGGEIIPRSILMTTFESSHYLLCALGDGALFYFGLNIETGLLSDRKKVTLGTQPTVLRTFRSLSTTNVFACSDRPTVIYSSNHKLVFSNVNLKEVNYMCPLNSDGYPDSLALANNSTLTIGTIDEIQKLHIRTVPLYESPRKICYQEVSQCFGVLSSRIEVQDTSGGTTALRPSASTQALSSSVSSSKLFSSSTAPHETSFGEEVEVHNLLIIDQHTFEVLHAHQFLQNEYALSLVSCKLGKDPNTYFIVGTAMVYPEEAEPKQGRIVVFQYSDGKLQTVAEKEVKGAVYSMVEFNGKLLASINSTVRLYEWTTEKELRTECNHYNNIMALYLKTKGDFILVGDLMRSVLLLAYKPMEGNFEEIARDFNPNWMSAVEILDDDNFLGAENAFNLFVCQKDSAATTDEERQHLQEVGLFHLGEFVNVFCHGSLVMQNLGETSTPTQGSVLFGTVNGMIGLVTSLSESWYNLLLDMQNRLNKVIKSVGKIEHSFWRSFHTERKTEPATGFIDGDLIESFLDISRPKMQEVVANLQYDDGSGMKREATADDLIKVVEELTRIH
T1 sequence (Q96SW2 whole entry): as the sequence (Q96SW2 whole entry, stated change not applied) above
T3 sequence (Q00534 whole entry): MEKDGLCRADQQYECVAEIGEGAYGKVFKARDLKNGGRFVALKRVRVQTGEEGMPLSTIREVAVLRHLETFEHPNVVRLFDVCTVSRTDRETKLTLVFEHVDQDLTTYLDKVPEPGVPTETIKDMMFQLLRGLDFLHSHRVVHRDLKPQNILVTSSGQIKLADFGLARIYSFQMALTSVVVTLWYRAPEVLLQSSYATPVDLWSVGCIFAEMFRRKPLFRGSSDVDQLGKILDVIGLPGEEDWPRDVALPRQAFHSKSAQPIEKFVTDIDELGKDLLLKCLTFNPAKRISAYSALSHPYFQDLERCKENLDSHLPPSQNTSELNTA
T2 sequence (P11802 whole entry): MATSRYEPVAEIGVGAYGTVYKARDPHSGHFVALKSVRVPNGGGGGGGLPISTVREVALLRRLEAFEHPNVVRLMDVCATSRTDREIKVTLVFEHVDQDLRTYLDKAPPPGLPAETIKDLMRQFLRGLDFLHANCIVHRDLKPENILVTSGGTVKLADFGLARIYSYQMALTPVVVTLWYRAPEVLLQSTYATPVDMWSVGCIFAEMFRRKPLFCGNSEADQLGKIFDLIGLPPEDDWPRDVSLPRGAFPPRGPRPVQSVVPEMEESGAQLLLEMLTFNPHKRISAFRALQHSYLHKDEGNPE

In the case of `O=C1CCC(N2Cc3ccc(CN4C[C@H]5C[C@@H]4CN5c4ccc(-c5cc(F)c6c(c5)C(=O)N(C(C(=O)Nc5nccs5)c5ncn7c5CCC7)C6)cc4)cc3C2=S)C(=O)N1` (stereo partly drawn) [GT-08764, 2-(6,7-dihydro-5H-pyrrolo[1,2-c]imidazol-1-yl)-2-(6-(4-((1R,4R)-5-((2-(2,6-dioxopiperidin-3-yl)-3-thioxoisoindolin-5-yl)methyl)-2,5-diazabicyclo[2.2.1]heptan-2-yl)phenyl)-4-fluoro-1-oxoisoindolin-2-yl)-N-(thiazol-2-yl)acetamide], the inhibition at 0.5 µM in assay [1] lay in the range of 60 to 80%; with H1975 (NCI-H1975, 500 nM, read-out: Inhibition Rate at 500 nM (%)), 50 to 60%. For the same compound, the inhibition at 2 µM in [1] lay within 60 to 80%. The “Degradation of substrate protein EGFR” value with EGFR was “A (0% ≤ substrate protein remaining % ≤ 80%)”. Further, the inhibition at 0.01 µM with H1975 (NCI-H1975, 10 nM, read-out: Inhibition Rate at 10 nM (%)) lay within 20 to 30%.

Consider `CC(=O)c1c(C)c2cnc(Nc3ccc(N4CCN(Cc5ccc6c(c5)CN(C5CCC(=O)NC5=O)C6=S)CC4)cn3)nc2n(C2CCCC2)c1=O` (stereo not drawn) [GT-08766, 3-(5-((4-(6-((6-acetyl-8-cyclopentyl-5-methyl-7-oxo-7,8-dihydropyrido[2,3-d]pyrimidin-2-yl)amino)pyridin-3-yl)piperazin-1-yl)methyl)-1-thioxoisoindolin-2-yl)piperidine-2,6-dione], for which, in assay [1], the inhibition at 0.5 µM lay within 53 to 60% and the inhibition at 2 µM fell in the range of 80 to 100%. At CDK4, the “Degradation of substrate protein CDK4” value is given as “A (0% ≤ substrate protein remaining % ≤ 80%)”. Also, the “Degradation of substrate protein CDK6” value at CDK6 is given as “A (0% ≤ substrate protein remaining % ≤ 80%)”.

For the compound `Cc1ccc(C(=O)Nc2ccc(CN3CCN(Cc4ccc5c(c4)CN(C4CCC(=O)NC4=O)C5=S)CC3)c(C(F)(F)F)c2)cc1C#Cc1cnc2cccnn12` (stereo not drawn) [GT-08767, N-(4-((4-((2-(2,6-dioxopiperidin-3-yl)-1-thioxoisoindolin-5-yl)methyl)piperazin-1-yl)methyl)-3-(trifluoromethyl)phenyl)-3-(imidazo[1,2-b]pyridazin-3-ylethynyl)-4-methylbenzamide], the “Degradation of substrate protein BCR-ABL” value on BCR-ABL is given as “A (0% ≤ substrate protein remaining % ≤ 80%)”. The inhibition at 0.01 µM in the assay on SW620 (SW-620, 10 nM, read-out: Inhibition Rate at 10 nM (%)) is 40 to 50%; with RPMI-8226, 20 to 30%; with MM.1S it was 70 to 80%; in the assay on MV-4-11, 80 to 100%. The inhibition at 0.5 µM fell in the range of 80 to 100% in the assay with SW620 (SW-620, 500 nM, read-out: Inhibition Rate at 500 nM (%)); 80 to 100% in the assay on RPMI-8226; 80 to 100% with MM.1S; 80 to 100% with MV-4-11.

For `Cc1ccc(C(=O)Nc2ccc(N3CCN(Cc4ccc5c(c4)CN(C4CCC(=O)NC4=O)C5=S)CC3)c(C(F)(F)F)c2)cc1C#Cc1cnc2cccnn12` (stereo not drawn) [GT-08768, N-(4-(4-((2-(2,6-dioxopiperidin-3-yl)-1-thioxoisoindolin-5-yl)methyl)piperazin-1-yl)-3-(trifluoromethyl)phenyl)-3-(imidazo[1,2-b]pyridazin-3-ylethynyl)-4-methylbenzamide], the “Degradation of substrate protein BCR-ABL” value at BCR-ABL is listed as “A (0% ≤ substrate protein remaining % ≤ 80%)”.

On to `O=C1CCC(N2Cc3cc(CN4CCN(C5CCN(c6ncc(C(=O)Nc7ccc(OC(F)(F)Cl)cc7)cc6-c6cc[nH]n6)CC5)CC4)ccc3C2=S)C(=O)N1` (stereo not drawn) [GT-08770, N-(4-(chlorodifluoromethoxy)phenyl)-6-(4-(4-((2-(2,6-dioxopiperidin-3-yl)-1-thioxoisoindolin-5-yl)methyl)piperazin-1-yl)piperidin-1-yl)-5-(1H-pyrazol-3-yl)nicotinamide], for which, in assay [1], the inhibition at 0.5 µM is 20 to 30% and the inhibition at 2 µM fell in the range of 60 to 80%. Moreover, the “Degradation of substrate protein BCR-ABL” value at BCR-ABL was “A (0% ≤ substrate protein remaining % ≤ 80%)”. In the assay with RPMI-8226, the inhibition at 0.01 µM lay in the range of 10 to 20% and the inhibition at 0.5 µM lay within 40 to 50%. Also, in the assay on MM.1S, the inhibition at 0.01 µM fell in the range of 5 to 10% and the inhibition at 0.5 µM was 30 to 40%.

Turning to `CN(C)C(=O)c1cc2cnc(Nc3ccc(N4CCN(Cc5cccc6c5CN(C5CCC(=O)NC5=O)C6=S)CC4)cn3)nc2n1C1CCCC1` (stereo not drawn) [GT-08771, 7-cyclopentyl-2-((5-(4-((2-(2,6-dioxopiperidin-3-yl)-1-thioxoisoindolin-4-yl)methyl)piperazin-1-yl)pyridin-2-yl)amino)-N,N-dimethyl-7H-pyrrolo[2,3-d]pyrimidine-6-carboxamide], in [1], the inhibition at 0.5 µM fell in the range of 60 to 80% and the inhibition at 2 µM lay in the range of 80 to 100%. The “Degradation of substrate protein CDK4” value at CDK4 is recorded as “A (0% ≤ substrate protein remaining % ≤ 80%)”. Moreover, the “Degradation of substrate protein CDK6” value on CDK6 is reported as “A (0% ≤ substrate protein remaining % ≤ 80%)”.

As for `Cc1ccc(C(=O)Nc2ccc(N3CCN(Cc4cccc5c4CN(C4CCC(=O)NC4=O)C5=S)CC3)c(C(F)(F)F)c2)cc1C#Cc1cnc2cccnn12` (stereo not drawn) [GT-08774, N-(4-(4-((2-(2,6-dioxopiperidin-3-yl)-1-thioxoisoindolin-4-yl)methyl)piperazin-1-yl)-3-(trifluoromethyl)phenyl)-3-(imidazo[1,2-b]pyridazin-3-ylethynyl)-4-methylbenzamide], at BCR-ABL, the “Degradation of substrate protein BCR-ABL” value is recorded as “A (0% ≤ substrate protein remaining % ≤ 80%)”. For the same compound, in the assay on MV-4-11, the inhibition at 0.01 µM was 20 to 30% and the inhibition at 0.5 µM was in the range of 70 to 80%.

As for `O=C1CCC(N2Cc3c(CN4CCN(C5CCN(c6ncc(C(=O)Nc7ccc(OC(F)(F)Cl)cc7)cc6-c6cc[nH]n6)CC5)CC4)cccc3C2=S)C(=O)N1` (stereo not drawn) [GT-08776, N-(4-(chlorodifluoromethoxy)phenyl)-6-(4-(4-((2-(2,6-dioxopiperidin-3-yl)-1-thioxoisoindolin-4-yl)methyl)piperazin-1-yl)piperidin-1-yl)-5-(1H-pyrazol-3-yl)nicotinamide], in [1], the inhibition at 0.5 µM was in the range of 40 to 53% and the inhibition at 2 µM lay within 60 to 80%. Further, on BCR-ABL, the “Degradation of substrate protein BCR-ABL” value is recorded as “A (0% ≤ substrate protein remaining % ≤ 80%)”.

Turning to `COc1cc(N2CCC(N3CCN(Cc4ccc5c(c4)CN(C4CCC(=O)NC4=O)C5=S)CC3)CC2)ccc1Nc1ncc(Cl)c(Nc2ccccc2P(C)(C)=O)n1` (stereo not drawn) [GT-09425, 3-(5-((4-(1-(4-((5-chloro-4-((2-(dimethylphosphoryl)phenyl)amino)pyrimidin-2-yl)amino)-3-methoxyphenyl)piperidin-4-yl)piperazin-1-yl)methyl)-1-thioxoisoindolin-2-yl)piperidine-2,6-dione], the inhibition at 0.5 µM lay within 60 to 80% in assay [1]; 60 to 70% with CFPAC-1 (500 nM, read-out: Inhibition Rate at 500 nM (%)); 50 to 60% in the assay with A375 (A-375, 500 nM, read-out: Inhibition Rate at 500 nM (%)). Moreover, the inhibition at 2 µM in assay [1] was 80 to 100%. For the same compound, the inhibition at 0.01 µM with CFPAC-1 (10 nM, read-out: Inhibition Rate at 10 nM (%)) is 10 to 20%; with A375 (A-375, 10 nM, read-out: Inhibition Rate at 10 nM (%)), 20 to 30%.

One may read the inhibition as the change of the read-out against control, counted positive when it falls.
